Molecules are shown by their SMILES.

HPK full length, T165E S171E, sequence (Q92918 whole entry T165E/S171E): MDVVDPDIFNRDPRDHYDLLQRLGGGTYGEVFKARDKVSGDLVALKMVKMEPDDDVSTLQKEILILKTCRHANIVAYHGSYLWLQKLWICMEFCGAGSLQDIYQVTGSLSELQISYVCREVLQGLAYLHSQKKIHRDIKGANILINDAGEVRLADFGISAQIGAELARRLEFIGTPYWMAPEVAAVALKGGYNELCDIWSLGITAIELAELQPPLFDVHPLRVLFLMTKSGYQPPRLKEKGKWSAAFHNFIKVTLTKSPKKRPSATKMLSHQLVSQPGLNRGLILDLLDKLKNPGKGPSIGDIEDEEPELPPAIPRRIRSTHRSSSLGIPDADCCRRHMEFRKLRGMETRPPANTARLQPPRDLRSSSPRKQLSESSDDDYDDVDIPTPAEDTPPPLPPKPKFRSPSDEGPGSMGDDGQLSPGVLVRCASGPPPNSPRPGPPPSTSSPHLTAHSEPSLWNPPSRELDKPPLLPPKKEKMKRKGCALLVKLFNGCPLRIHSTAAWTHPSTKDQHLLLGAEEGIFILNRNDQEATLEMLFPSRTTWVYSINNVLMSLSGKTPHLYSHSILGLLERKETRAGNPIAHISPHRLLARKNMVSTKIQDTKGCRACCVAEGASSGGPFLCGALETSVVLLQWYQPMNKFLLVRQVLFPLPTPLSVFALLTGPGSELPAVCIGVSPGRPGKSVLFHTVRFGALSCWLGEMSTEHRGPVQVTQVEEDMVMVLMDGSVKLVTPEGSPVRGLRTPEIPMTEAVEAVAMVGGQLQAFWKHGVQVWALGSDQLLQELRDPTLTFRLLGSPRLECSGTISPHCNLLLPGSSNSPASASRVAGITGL

The target of the first assay is HPK full length, T165E S171E (Homo sapiens (Human), UniProt Q92918, S171E/T165E). In words: HPK1-FL HTRF Enzymatic Assay ("HTRF"). It is filed as biochemical. The following applies: H = HTRF; ATP 1 mM. On the procedure:
Example BI: HPK1-FL HTRF Enzymatic Assay (“HTRF”)
HPK-FL enzyme phosphorylates Biotin-SLP-76 substrate in the presence of ATP at 1 mM and varying concentrations of test compound. Product is detected by FRET using Eu-anti-pSLP76 Ab and SA-XL665. Also see www.cisbio.com/HTRF for additional HTRF technology information.
• Assay plate: White ProxiPlate 384 F (PerkinElmer cat #6008289) • Kinase: HPK full length double mutant • Substrate: Biotin-SLP76 • ATP: 100 mM ATP • BSG: 2% BSG • DMSO: DMSO (Sigma cat #34869-100ML) • Reaction Buffer: H2O/50 mM HEPES, pH 7.5/10 mM MgCl2/2 mM TCEP/0.01% Brij-35/0.01% BSG • Detection mix: Eu-anti-pSLP76/SA-XL665 (Cisbio, #610SAXAC)
To a 384 well Proxiplate with 80 nL compound or DMSO spotted on was added 4 μl/well kinase mix. The mixture was preincubated for 30 minutes and then 4 μl/well substrate mix was added. The solution was incubated for 60 min and then 4 μl/well detection mix was added. The solution was incubated for another 60 min. The plates were then loaded onto a Perkin Elmer Envision and the TR-FRET signal was measured at 615 and 665 nm. A ratio of […] was used to calculate the % activity at each concentration of compound.
On to `Cc1c(N)cncc1-c1cc(N)c2nnc(Nc3cc4n(n3)CC(=O)N(C(C)C)CC4)cc2c1` [Compound 29, 2-((8-Amino-6-(5-amino-4-methylpyridin-3-yl)cinnolin-3-yl)amino)-6-isopropyl-5,6-dihydro-4H-pyrazolo[1,5-d][1,4]diazepin-7(8H)-one], for which the inhibition constant Ki worked out at 0.098 nM. Same read-out and setting: the value for `Cc1c(N)cncc1-c1ccc2nnc(Nc3cc4n(n3)CC(=O)N(C(C)C)CC4)cc2c1` [Compound 28, 2-((6-(5-Amino-4-methylpyridin-3-yl)cinnolin-3-yl)amino)-6-isopropyl-5,6-dihydro-4H-pyrazolo[1,5-d][1,4]diazepin-7(8H)-one] was 40 nM.

In a further assay the target is HPK1 (Homo sapiens, UniProt Q92918). In words: HPK1 Lantha Binding Assay ("Lanth"). The settings on record: L = Lanth. The method, then: Example B2: HPK1 Lantha Binding Assay (“Lanth”)
For the reference compound, the top concentration was 1 mM. To the plate was added 10 μL 2 mM staurosporine in wells J1-P1 and A24-H24. A 11 point 5-fold compound serial dilution was performed using the Bravo liquid handling platform. […] The compound plate was centrifuged at 2500 rpm for 1 min. From the compound plate was transferred 80n1 of the compounds into an assay plate using the Echo liquid handler system. One compound plate makes two assay plates. Each assay plate is sealed and stored in an N2 cabinet.
The following assay concentrations and times were used: 2 nM HPK1, 2 nM Eu-Anti-GST Ab, and 15 nM Tracer222, with 60 min incubation time.
For the binding assay, 4 μL 2×HPK1 and Eu-anti-GST antibody were added to each well of the assay plate using a Multidrop reagent dispenser. The solutions were incubated in a 23 C incubator for 1 h. To each well of the assay plate was added 4 μL 2× Tracer-222 using a Multidrop reagent dispenser. The solutions were again incubated in a 23° C. incubator for 1 h. The results of the assay were read using an Envision plate reader with the following parameters: TR_FRET, 340ex/615 and 665em; […].
Compound Ki was analyzed using Morrison ki fit model in XL-fit
[formula] [formula] • b. Parameters: • E=enzyme concentration • S=Tracer222 concentration, Kd=Tracer222 Kd
All measurements are reported using the same units (nM).
Exemplary compounds were tested in the binding assays.
Turning to `Cc1c(N)cncc1-c1cc(N)c2nnc(NC(=O)[C@H]3C[C@@H]3C#N)cc2c1` (single isomer, unassigned) [Compound 23b], affinity was put at a Ki of 4 nM. For the compound `CC(C)OC(=O)Nc1cc2cc(-c3cnn(C)c3)cc(N)c2nn1` [Compound 9, Isopropyl N-[8-amino-6-(1-methylpyrazol-4-yl)cinnolin-3-yl]carbamate], affinity was put at a Ki of 28 nM.

In turn, `Cc1cnsc1-c1cc(N)c2nnc(NC(=O)[C@@H]3C[C@@H]3F)cc2c1` (racemic) [Compound 15, (+/−)-cis-N-[8-Amino-6-(4-methylisothiazol-5-yl)cinnolin-3-yl]-2-fluoro-cyclopropanecarboxamide] showed a Ki of 3 nM. On to `Cn1cc(-c2cc(N)c3nnc(NC(=O)N4CCCC4)cc3c2)cn1` [Compound 10, N-[8-Amino-6-(1-methylpyrazol-4-yl)cinnolin-3-yl]pyrrolidine-1-carboxamide], for which the inhibition constant (Ki) worked out at 65 nM. Compound `Cc1c(N)cncc1-c1cc(N)c2nnc(NC(=O)[C@@H]3C[C@H]3C#N)cc2c1` (single isomer, unassigned) [Compound 23a] yielded a Ki of 0.7 nM.

In turn, `Cn1cc(-c2cc(N)c3nnc(NC(=O)[C@@H]4C[C@@H]4F)cc3c2)cn1` [Compound 18a, (1S,2S)—N-(8-Amino-6-(1-methyl-1H-pyrazol-4-yl)cinnolin-3-yl)-2-fluorocyclopropanecarboxamide] yielded a Ki of 15 nM. For the compound `Nc1cc(-c2cnccc2C2CC2)cc2cc(NC(=O)[C@@H]3C[C@@H]3F)nnc12` (racemic) [Compound 22, (+/−)-cis-N-(8-Amino-6-(4-cyclopropylpyridin-3-yl)cinnolin-3-yl)-2-fluorocyclopropanecarboxamide], the Ki was 31 nM.

`Cc1ccncc1-c1cc(Cl)c2nnc(NC(=O)C3CC3)cc2c1` [Compound 26, N-(8-Chloro-6-(4-methylpyridin-3-yl)cinnolin-3-yl)cyclopropanecarboxamide] returned an inhibition constant (Ki) above 1000 nM. `N#Cc1ccncc1-c1cc(N)c2nnc(NC(=O)[C@@H]3C[C@@H]3F)cc2c1` (racemic) [Compound 4, (+/−)-cis-N-(8-Amino-6-(4-cyanopyridin-3-yl)cinnolin-3-yl)-2-fluorocyclopropanecarboxamide] displayed a Ki of 600 nM. The compound `CCc1cc(N)c2nnc(NC(=O)[C@@H]3C[C@@H]3F)cc2c1` [Compound 6a, (1S,2S)-N-(8-Amino-6-ethylcinnolin-3-yl)-2-fluorocyclopropanecarboxamide] showed a Ki of 440 nM. Same read-out and setting: the value for `CCc1ccncc1-c1cc(N)c2nnc(NC(=O)[C@@H]3C[C@H]3C#N)cc2c1` (racemic) [Compound 20, (+/−)-trans-N-(8-Amino-6-(4-ethylpyridin-3-yl)cinnolin-3-yl)-2-cyanocyclopropanecarboxamide] was 13 nM. In turn, `Cc1ccncc1-c1cc(C)c2nnc(NC(=O)C3CC3)cc2c1` [Compound 24, N-(8-Methyl-6-(4-methylpyridin-3-yl)cinnolin-3-yl)cyclopropanecarboxamide] gave a Ki of 260 nM. Regarding `COc1ccncc1-c1cc(N)c2nnc(NC(=O)[C@@H]3C[C@@H]3F)cc2c1` [Compound 2a, (1S,2S)—N-(8-Amino-6-(4-methoxypyridin-3-yl)cinnolin-3-yl)-2-fluorocyclopropanecarboxamide], the Ki amounted to 58 nM. `Cc1ccncc1-c1cc(N)c2nnc(NC(=O)C3CC3)cc2c1` [Compound 25, N-(8-Amino-6-(4-methylpyridin-3-yl)cinnolin-3-yl)cyclopropanecarboxamide] gave a Ki of 1.9 nM. Regarding `Cn1cc(-c2cc(N)c3nnc(NC(=O)[C@@H]4C[C@H]4C#N)cc3c2)cn1` (racemic) [Compound 19, (+/−)-trans-N-(8-Amino-6-(1-methyl-1H-pyrazol-4-yl)cinnolin-3-yl)-2-cyanocyclopropanecarboxamide], the affinity corresponds to a Ki of 14 nM.

With `Cc1cc(N)ncc1-c1cc(N)c2nnc(NC(=O)[C@@H]3C[C@@H]3F)cc2c1` [Compound 5a, (1S,2S)—N-(8-Amino-6-(6-amino-4-methylpyridin-3-yl)cinnolin-3-yl)-2-fluorocyclopropanecarboxamide], affinity was put at a Ki of 15 nM.

`Cc1cnccc1-c1cc(N)c2nnc(NC(=O)[C@@H]3C[C@@H]3F)cc2c1` [Compound 17a, (1S,2S)—N-(8-Amino-6-(3-methylpyridin-4-yl)cinnolin-3-yl)-2-fluorocyclopropanecarboxamide] returned an inhibition constant Ki of 53 nM. On to `Cc1ccncc1-c1ccc2nnc(NC(=O)C3CC3)cc2c1` [Compound 27, N-(6-(4-Methylpyridin-3-yl)cinnolin-3-yl)cyclopropanecarboxamide], for which the inhibition constant (Ki) amounted to 510 nM. The same measure, in the same setting: for `CCc1ccncc1-c1cc(N)c2nnc(NC(=O)[C@@H]3C[C@@H]3F)cc2c1` (racemic) [Compound 21, (+/−)-cis-N-(8-Amino-6-(4-ethylpyridin-3-yl)cinnolin-3-yl)-2-fluorocyclopropanecarboxamide] the value was 4 nM; for `Nc1cc(C2CC2)cc2cc(NC(=O)[C@@H]3C[C@@H]3F)nnc12` (racemic) [Compound 7, cis-N-(8-Amino-6-cyclopropylcinnolin-3-yl)-2-fluorocyclopropane carboxamide], 600 nM.

In turn, `CCc1ccncc1-c1cc(N)c2nnc(NC(=O)NC(C)C)cc2c1` [Compound 11, 1-[8-Amino-6-(4-ethyl-3-pyridyl)cinnolin-3-yl]-3-isopropyl-urea] registered an inhibitory constant (Ki) of 8 nM. This Ki is about 75-fold lower than that of the compound before.

The test system of another assay is primary human pan T cells. In words: Human T-cell IL2 Induction Assay. It is filed as cell-based. The following applies: assayed concentration 2.78 μM; anti-CD3/anti-CD28 stimulation. The method, then:
Example B3: Human T-cell IL2 Induction Assay
Assay Principle: Anti-CD3 and anti-CD28 activates TCR signaling in primary human pan T cells leading to IL-2 promoter induction. Secreted IL-2 in cell culture supernatant is detected by electrochemiluminescence using a capture antibody against IL-2 and an anti-IL-2 antibody labeled with SULFO-tag. Also see www.mesoscale.com for additional electrochemiluminescence technology information.
Assay Procedure: Incubate primary human pan T cells with varying concentrations of test compounds for 30 minutes in a humidified incubator at 37° C. and 5% CO2. Transfer cells to a plate pre-coated with a fixed concentration of anti-human CD3 (determined separately for each donor lot) and add soluble anti-human CD28 (final concentration=1 μg/ml). Stimulate cells in a humidified incubator at 37° C. and 5% CO2 for 4 hours. Transfer 25 μl of supernatant to a MSD single spot plate pre-coated with an anti-human IL-2 antibody. Incubate MSD plate overnight at 4° C. with gentle shaking. Wash MSD plate 4× with wash buffer. […] Wash MSD plate 4× with wash buffer and add 150 μl 2×MSD read buffer. Read on an MSD instrument. […]
Exemplary compounds of Formula (I) were tested in the human T-cell IL-2 induction assays. The % increase measured for IL-2 in cells treated by the test compounds relative to untreated cells are provided in Table B2 for certain compounds.
Consider `Cc1c(N)cncc1-c1cc(N)c2nnc(NC(=O)[C@@H]3C[C@H]3C#N)cc2c1` (single isomer, unassigned) [Compound 23a], for which the “% IL-2 increase relative to untreated cells” value was found to be 538%.

Still in this assay, the particulars now being: assayed concentration 8.33 μM; anti-CD3/anti-CD28 stimulation.
For `Cc1ccncc1-c1cc(N)c2nnc(NC(=O)C3CC3)cc2c1` [Compound 25, N-(8-Amino-6-(4-methylpyridin-3-yl)cinnolin-3-yl)cyclopropanecarboxamide], the “% IL-2 increase relative to untreated cells” value was found to be 192%.

(Values after US20240368170A1, “CINNOLINE COMPOUNDS AND USES THEREOF” (Genentech, Inc., priority 2018, published 2024).)
